Legend:
[1] = pH solubility profile of compound 1 at room temperature (FIG. 1); assay type: physicochemical; conditions: pH>4, FIG. 1
Text: (§1) Compound 1 is being evaluated in the clinic for the treatment of liver infection caused by hepatitis C virus. The estimated daily dose is 1 g-2 g requiring high drug loading in the drug product to provide the best treatment regimen for the patients. […] The high dose and need for an immediate release profile are further complicated by the low bulk density of the drug substance (0.04 to 0.3 g/cc). The conventional manufacturing technologies employing commonly used excipients require the use of multiple densification steps as well as high amounts of excipients such as binders. In addition to the multi-step manufacturing process, the high usage of binder has a negative impact on the dissolution of the product resulting in lower bioavailability.
FIG. 1 provides a graph illustrating the pH solubility profile of compound 1 at room temperature.

pKa of compound 1 = assay type: physicochemical; conditions: weak base
Text: as §1

drug solubility vs pH [1]: drops precipitously
pKa (pKa of compound 1): 3.5
Structure (SMILES): CC(C)C(=O)OC[C@H]1O[C@@H](n2ccc(N)nc2=O)[C@](C)(F)[C@@H]1OC(=O)C(C)C [Compound 1, Isobutyric acid (2R,3R,4R,5R)-5-(4-amino-2-oxo-2H-pyrimidin-1-yl)-4-fluoro-2-isobutyryloxymethyl-4-methyl-tetrahydro-furan-3-yl ester]
